# Source: US20160135464A1, “PESTICIDAL COMPOSITIONS AND PROCESSES RELATED THERETO” (Dow AgroSciences LLC, priority 2014, published 2016)
# Assays:
# [1] = tested on: Green Peach Aphid (GPA) (Myzus persicae); assay: Bioassay on green peach aphid (GPA), foliar spray on cabbage seedlings, corrected % control; assay type: in vivo; details: 72 h, read-out: % Mortality GPA 200 ppm
# Description: Certain molecules disclosed in this document were tested against GPA using procedures described in the following example. In the reporting of the results, the “GPA Rating Table” was used (See Table Section).
# Cabbage seedlings grown in 3-inch pots, with 2-3 small (3-5 cm) true leaves, were used as test substrate. The seedlings were infested with 20-50 GPA (wingless adult and nymph stages) one day prior to chemical application. Four pots with individual seedlings were used for each treatment. Test compounds (2 mg) were dissolved in 2 mL of acetone/methanol (1:1) solvent, forming stock solutions of 1000 ppm test compound. […] A hand-held aspirator-type sprayer was used for spraying a solution to both sides of […] leaves until runoff. Reference plants (solvent check) were sprayed with the diluent only containing 20% by volume of acetone/methanol (1:1) solvent. Treated plants were held in a holding room for three days at approximately 25° C. and ambient relative humidity (RH) prior to grading. Evaluation was conducted by counting the number of live aphids per plant under a microscope.
# Corrected % Control=100*(X−Y)/X • where • X=No. of live aphids on solvent check plants and • Y=No. of live aphids on treated plants
# The results are indicated in the table entitled “Table 5: Biological Results” (See Table Section).
# [2] = tested on: Corn Earworm (CEW) (Helicoverpa zea); assay: Bioassay on corn earworm (CEW), 128-well diet tray assay, percent mortality; assay type: in vivo; details: Helicoverpa zea, 50 μg/cm^2
# Description: (§1) Certain molecules disclosed in this document were tested against BAW and CEW using procedures described in the following examples. In the reporting of the results, the “BAW & CEW Rating Table” was used (See Table Section).
# Bioassays on CEW (Helicoverpa zea)
# Bioassays on CEW were conducted using a 128-well diet tray assay. One to five second instar CEW larvae were placed in each well (3 mL) of the diet tray that had been previously filled with 1 mL of artificial diet to which 50 μg/cm^2 of the test compound (dissolved in 50 μL of 90:10 acetone-water mixture) had been applied (to each of eight wells) and then allowed to dry. Trays were covered with a clear self-adhesive cover and held at 25° C., 14:10 light-dark for five to seven days. Percent mortality was recorded for the larvae in each well; activity in the eight wells was then averaged. The results are indicated in the table entitled “Table 5: Biological Results” (See Table Section).
# [3] = tested on: Beet Armyworm (BAW) (Spodoptera exigua); assay: Bioassay on beet armyworm (BAW), 128-well diet tray assay, percent mortality; assay type: in vivo; details: Spodoptera exigua, 50 μg/cm^2
# Description: as §1
# Bioassays on BAW (Spodoptera exigua)
# Bioassays on BAW were conducted using a 128-well diet tray assay. One to five second instar BAW larvae were placed in each well (3 mL) of the diet tray that had been previously filled with 1 mL of artificial diet to which 50 μg/cm^2 of the test compound (dissolved in 50 μL of 90:10 acetone-water mixture) had been applied (to each of eight wells) and then allowed to dry. Trays were covered with a clear self-adhesive cover and held at 25° C., 14:10 light-dark for five to seven days. Percent mortality was recorded for the larvae in each well; activity in the eight wells was then averaged. The results are indicated in the table entitled “Table 5: Biological Results” (See Table Section).
smiles,measurement,setting,value
CC(C)c1cc(F)c(F)cc1NC(=S)N/N=C/c1ccc(-c2ncn(-c3ccc(OC(F)(F)F)cc3)n2)cc1 [Compound I-55],melting point,,217 to 221 °C
Cc1ccc(C(C)C)c(NC(=S)NN)c1 [Compound I-46],melting point,,167 to 169 °C
FC(F)(F)Oc1ccc(-n2cnc(-c3ccc(/C=N/NC(=S)Nc4ccccc4C4CCCC4)cc3)n2)cc1 [Compound I-35],melting point,,213 to 216 °C
Cc1cccc(NC(=S)N/N=C/c2ccc(-c3ncn(-c4ccc(OC(F)(F)F)cc4)n3)cc2)c1C(C)C [Compound I-43],melting point,,219 to 222 °C
CC(C)c1cc(F)c(F)cc1NC(=S)NN [Compound I-54],melting point,,169 to 170 °C
CCc1cccc(C)c1N1CCCS/C1=N\N=C\c1ccc(-c2ncn(-c3ccc(OC(F)(F)F)cc3)n2)cc1 [Compound 180C],pest or weed control at 200 ppm,[1],0 to 80%
same,"pest or weed control at 50 µg/cm2, 50 µg/cm2",[2],50 to 100%
same,"pest or weed control at 50 µg/cm2, 50 µg/cm2",[3],50 to 100%
COc1ccc(N2/C(=N/N=C/c3ccc(-c4ncn(-c5ccc(OC(F)(F)F)cc5)n4)cc3)SCC2(C)O)c(C)c1 (stereo not drawn) [Compound 245C],pest or weed control at 200 ppm,[1],0 to 80%
same,"pest or weed control at 50 µg/cm2, 50 µg/cm2",[2],50 to 100%
same,"pest or weed control at 50 µg/cm2, 50 µg/cm2",[3],50 to 100%
Cc1ccccc1N1/C(=N/N=C/c2ccc(-c3ncn(-c4ccc(OC(F)(F)F)cc4)n3)cc2)SCC1(C)O (stereo not drawn) [Compound 248C],pest or weed control at 200 ppm,[1],0 to 80%
same,"pest or weed control at 50 µg/cm2, 50 µg/cm2",[2],50 to 100%
same,"pest or weed control at 50 µg/cm2, 50 µg/cm2",[3],50 to 100%
Cc1cc(C)c(N2C(=O)CS/C2=N\N=C\c2ccc(-c3ncn(-c4ccc(OC(F)(F)F)cc4)n3)cc2)c(C)c1 [Compound 72C],pest or weed control at 200 ppm,[1],0 to 80%
same,"pest or weed control at 50 µg/cm2, 50 µg/cm2",[2],50 to 100%
same,"pest or weed control at 50 µg/cm2, 50 µg/cm2",[3],50 to 100%
CC(C)c1cc(F)ccc1NC(=S)NN [Compound I-50],melting point,,163 to 167 °C
CCC(C)c1ccccc1N1/C(=N/N=C/c2ccc(-c3ncn(-c4ccc(OC(F)(F)F)cc4)n3)cc2)SCC1(C)O (stereo not drawn) [Compound 243C],pest or weed control at 200 ppm,[1],0 to 80%
same,"pest or weed control at 50 µg/cm2, 50 µg/cm2",[2],50 to 100%
same,"pest or weed control at 50 µg/cm2, 50 µg/cm2",[3],50 to 100%
CC(C)c1ccccc1N1/C(=N/N=C/c2ccc(-c3ncn(-c4ccc(OC(F)(F)F)cc4)n3)cc2)SCC1(C)O (stereo not drawn) [Compound 242C],pest or weed control at 200 ppm,[1],0 to 80%
same,"pest or weed control at 50 µg/cm2, 50 µg/cm2",[2],50 to 100%
same,"pest or weed control at 50 µg/cm2, 50 µg/cm2",[3],50 to 100%
